Assay [1] concerns HCT116. The following applies: 72 h. How it is done: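 HCT116 control and MTA1-KO (CRISPR) HCT116 cells were seeded in 384-well plates (800 cells/well), treated 16 h later with 237 metabolism-related anticancer drugs at five doses (10 uM, 2 uM, 400 nM, 80 nM, 16 nM) for 72 h, two replicates; viability by CCK8. Values are % inhibition of viability relative to untreated cells, plus fitted IC50.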

The test system of assay [2] is HCT116. The assay is described as follows: viability inhibition vs untreated; higher = more cytotoxic. The note with it: 72 h.

Drawing on the supplement of paper PMC10477900, this text covers IC50 and viability inhibition for 9 compounds.

Molecules are shown by their SMILES.

Consider `CCCCCCCCCCCCc1ccc(S(=O)(=O)Nc2nncs2)cc1` [PHT427], for which the IC50 in assay [1] (genotype: MTA1-KO) and in assay [1] (genotype: control) was over 10 µM throughout. The viability inhibition in assay [2] (genotype: MTA1-KO, 16 nM) is -19.3%; in assay [2] (genotype: MTA1-KO, 80 nM) it was -22.1%; in assay [2] (genotype: MTA1-KO, 400 nM), -13%; in assay [2] (genotype: MTA1-KO, 2000 nM), -17.1%; in assay [2] (genotype: MTA1-KO, 10000 nM), -3.56%; in assay [2] (genotype: control, 16 nM), 20.4%. Further, the viability inhibition in assay [2] (genotype: control, 80 nM) is -3.89%; in assay [2] (genotype: control, 400 nM), -1.76%; in assay [2] (genotype: control, 2000 nM) it was -0.669%; in assay [2] (genotype: control, 10000 nM), 9.06%.

`Nc1cc(C(F)(F)F)c(-c2nc(N3CCOCC3)nc(N3CCOCC3)n2)cn1` [PI3K-IN-2]: the IC50 (usually the concentration that inhibits the measured activity by half) in assay [1] (genotype: MTA1-KO) is 0.468 µM; in assay [1] (genotype: control) it was 0.7 µM. Moreover, the viability inhibition in assay [2] (genotype: MTA1-KO, 16 nM) is 23.9%; in assay [2] (genotype: MTA1-KO, 80 nM) it was 23%; in assay [2] (genotype: MTA1-KO, 400 nM) it was 49.3%; in assay [2] (genotype: MTA1-KO, 2000 nM), 88.7%; in assay [2] (genotype: MTA1-KO, 10000 nM), 90.2%; in assay [2] (genotype: control, 16 nM) it was -12.8%. Further, the viability inhibition came out at 0.462% in assay [2] (genotype: control, 80 nM); 27.1% in assay [2] (genotype: control, 400 nM); 73.3% in assay [2] (genotype: control, 2000 nM); 83.3% in assay [2] (genotype: control, 10000 nM).

`Oc1cccc(-c2nc(N3CCOCC3)c3oc4ncccc4c3n2)c1` [PI103]: the IC50 worked out at 1.82 µM in assay [1] (genotype: MTA1-KO) and 5.97 µM in assay [1] (genotype: control). For the same compound, the viability inhibition in assay [2] (genotype: MTA1-KO, 16 nM) is 7.63%; in assay [2] (genotype: MTA1-KO, 80 nM) it was -22.6%; in assay [2] (genotype: MTA1-KO, 400 nM) it was -6.55%; in assay [2] (genotype: MTA1-KO, 2000 nM), 42.3%; in assay [2] (genotype: MTA1-KO, 10000 nM), 80.5%; in assay [2] (genotype: control, 16 nM), -15.1%. For the same compound, the viability inhibition in assay [2] (genotype: control, 80 nM) was -2.17%; in assay [2] (genotype: control, 400 nM), -8.02%; in assay [2] (genotype: control, 2000 nM), -2.63%; in assay [2] (genotype: control, 10000 nM) it was 80.1%.

As for `CC1=C(CSC(=S)N2CCCCC2)C(=O)c2ccccc2C1=O` [PKM2 inhibitor], the IC50 was 0.861 µM in assay [1] (genotype: MTA1-KO) and over 10 µM in assay [1] (genotype: control). For the same compound, the viability inhibition in assay [2] (genotype: MTA1-KO, 16 nM) is -2.72%; in assay [2] (genotype: MTA1-KO, 80 nM), -15.5%; in assay [2] (genotype: MTA1-KO, 400 nM), -11%; in assay [2] (genotype: MTA1-KO, 2000 nM) it was 79.7%; in assay [2] (genotype: MTA1-KO, 10000 nM), 65.9%; in assay [2] (genotype: control, 16 nM), -0.424%. Further, the viability inhibition in assay [2] (genotype: control, 80 nM) was -10.4%; in assay [2] (genotype: control, 400 nM), -5.1%; in assay [2] (genotype: control, 2000 nM), 5.17%; in assay [2] (genotype: control, 10000 nM) it was 33.3%.

Consider `Nc1ncnc2c1c(-c1cnc3[nH]ccc3c1)nn2C1CCCC1` [PP121], for which the IC50 in assay [1] (genotype: MTA1-KO) came out at 0.675 µM; in assay [1] (genotype: control), 0.874 µM. For the same compound, the viability inhibition in assay [2] (genotype: MTA1-KO, 16 nM) turned out to be 14.3%; in assay [2] (genotype: MTA1-KO, 80 nM), 12.8%; in assay [2] (genotype: MTA1-KO, 400 nM), 43.5%; in assay [2] (genotype: MTA1-KO, 2000 nM) it was 90.3%; in assay [2] (genotype: MTA1-KO, 10000 nM), 111%; in assay [2] (genotype: control, 16 nM), 10.8%. For the same compound, the viability inhibition in assay [2] (genotype: control, 80 nM) is 16.8%; in assay [2] (genotype: control, 400 nM), 25.2%; in assay [2] (genotype: control, 2000 nM) it was 86.4%; in assay [2] (genotype: control, 10000 nM) it was 104%.

In the case of `COCC1(CO)C(=O)C2CCN1CC2` (stereo not drawn) [PRIMA-1Met], the IC50 in assay [1] (genotype: MTA1-KO) and in assay [1] (genotype: control) was over 10 µM throughout. The viability inhibition in assay [2] (genotype: MTA1-KO, 16 nM) was 7.04%; in assay [2] (genotype: MTA1-KO, 80 nM) it was 1.21%; in assay [2] (genotype: MTA1-KO, 400 nM), 20.1%; in assay [2] (genotype: MTA1-KO, 2000 nM) it was -5.66%; in assay [2] (genotype: MTA1-KO, 10000 nM), 5.13%; in assay [2] (genotype: control, 16 nM), 13.6%. Moreover, the viability inhibition in assay [2] (genotype: control, 80 nM) was 13%; in assay [2] (genotype: control, 400 nM), 5.28%; in assay [2] (genotype: control, 2000 nM), 1.17%; in assay [2] (genotype: control, 10000 nM), 30.6%.

Turning to `COc1ccc(COc2cc3oc(=O)c4cc(C(C)O)ccc4c3cc2OC)cc1` (stereo not drawn) [Palomid 529], the IC50 worked out at 0.283 µM in assay [1] (genotype: MTA1-KO) and 1.11 µM in assay [1] (genotype: control). The viability inhibition is -7.41% in assay [2] (genotype: MTA1-KO, 16 nM); 23.6% in assay [2] (genotype: MTA1-KO, 80 nM); 37.3% in assay [2] (genotype: MTA1-KO, 400 nM); 64.4% in assay [2] (genotype: MTA1-KO, 2000 nM); 90.1% in assay [2] (genotype: MTA1-KO, 10000 nM); 7.44% in assay [2] (genotype: control, 16 nM). Further, the viability inhibition turned out to be 22.7% in assay [2] (genotype: control, 80 nM); 38.9% in assay [2] (genotype: control, 400 nM); 54.6% in assay [2] (genotype: control, 2000 nM); 86.9% in assay [2] (genotype: control, 10000 nM).

For the compound `C=C1C(=O)O[C@H]2[C@H]1CC/C(C)=C/CC[C@@]1(C)O[C@@H]21` [Parthenolide], the results for the IC50 in assay [1] (genotype: MTA1-KO) and in assay [1] (genotype: control) were 2.9 µM and 6.58 µM, respectively. For the same compound, the viability inhibition in assay [2] (genotype: MTA1-KO, 16 nM) is 13.7%; in assay [2] (genotype: MTA1-KO, 80 nM), 23.4%; in assay [2] (genotype: MTA1-KO, 400 nM), 17.3%; in assay [2] (genotype: MTA1-KO, 2000 nM), 27.8%; in assay [2] (genotype: MTA1-KO, 10000 nM), 114%; in assay [2] (genotype: control, 16 nM), -4.45%. Further, the viability inhibition in assay [2] (genotype: control, 80 nM) is 2.37%; in assay [2] (genotype: control, 400 nM), -14.2%; in assay [2] (genotype: control, 2000 nM), -17.8%; in assay [2] (genotype: control, 10000 nM), 100%.

For the compound `Nc1nc2[nH]cc(CCc3ccc(C(=O)N[C@@H](CCC(=O)O)C(=O)O)cc3)c2c(=O)[nH]1` [Pemetrexed Disodium Hydrate], the IC50 in assay [1] (genotype: MTA1-KO) is 1.71 µM; in assay [1] (genotype: control) it was over 10 µM. In addition, the viability inhibition was -0.998% in assay [2] (genotype: MTA1-KO, 16 nM); 0.351% in assay [2] (genotype: MTA1-KO, 80 nM); -2.35% in assay [2] (genotype: MTA1-KO, 400 nM); 34.3% in assay [2] (genotype: MTA1-KO, 2000 nM); 60.9% in assay [2] (genotype: MTA1-KO, 10000 nM); -14.7% in assay [2] (genotype: control, 16 nM). Moreover, the viability inhibition in assay [2] (genotype: control, 80 nM) was -8.65%; in assay [2] (genotype: control, 400 nM), -11.7%; in assay [2] (genotype: control, 2000 nM), -6.77%; in assay [2] (genotype: control, 10000 nM) it was 5.15%.
